{"source": "patent US8742173B2", "about": "“Phenolic hydrazone macrophage migration inhibitory factor inhibitors” (The Feinstein Institute for Medical Research, priority 2006, dated 2014)", "key": {"[1]": {"tested_on": "LPS-treated macrophages", "details": "cited from earlier work"}, "[2]": {"tested_on": "Balb/C mice", "details": "Al-Abed et al., 2005; cited from earlier work"}, "[3]": {"target": "T1, MIF (Homo sapiens, UniProt P14174)", "T1 sequence (P14174 2-115 limits assumed)": "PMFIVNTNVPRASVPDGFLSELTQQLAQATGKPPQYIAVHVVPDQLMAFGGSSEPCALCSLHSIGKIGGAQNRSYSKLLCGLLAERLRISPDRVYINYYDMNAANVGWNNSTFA", "test": "Spectrophotometric assay of MIF tautomerase activity on L-dopachrome methyl ester", "format": "biochemical"}, "[4]": {"tested_on": "Swiss Webster male mice", "test": "Carrageenan air pouch model, leukocyte recruitment", "format": "in vivo", "details": "oral administration; assessed by inhibition of leukocyte infiltration", "description": "Air pouches were made according to standard procedures (Garcia-Ramallo et al., 2002) on Swiss Webster male mice (25-30 g) by injecting sterile air s.c. on day 0 (6 ml) and day 3 (3 ml). On day 6, animals were treated with vehicle (350 μl of 20% DMSO) or compound 7 (7 mg/kg) either intraperitoneal (i.p.) or gavage (oral) as indicated. After 15 min, the animals were challenged by injecting 1 ml 1% carrageenan (in PBS) into the air pouch cavity. Five hrs after carrageenan injection the animals were sacrificed, the pouches washed with PBS, exudate collected, and the total number of infiltrating cells quantitated.\nIn another experiment, air pouches were made as above. On day 6, animals were treated with vehicle (350 μl of 20% DMSO) or compound 7 (7 mg/kg, gavage) at the indicated times prior to sacrificing and cell harvesting. In all cases, 1% carrageenan was injected into the air pouch cavity 5 hrs before sacrificing."}, "[5]": {"tested_on": "Balb/C mice", "test": "Cecal ligation and puncture (CLP) sepsis model, survival", "format": "in vivo", "details": "4 mg/kg intraperitoneal, initiated 24 h after CLP, continued for 3 days; control 28%", "description": "FIG. 4 is a graph of experimental results showing that the hydrazone compound 7 is protective after 24 h late treatment in a CLP model. Mice were injected intraperitoneally with compound 7 (“hydrazone”) (4 mg/kg) (n=13, p<0.01) or vehicle 24 h after CLP (n=13). A single injection was composed of 100 μg of Compound 7 (equivalent to 4 mg/kg) in 200 μL of 20% DMSO: 80% saline solution. Additional administrations of compound 7 (bi-daily) were given on days 2 and 3.\nAll animal experiments were approved by the Institutional Animal Care and Use Committee of the North Shore-Long Island Jewish Research Institute. Male Balb/C mice, ˜8 weeks old, were subjected to cecal ligation and puncture. Details of the CLP procedure has been carried out as follows: In anesthetized male Balb/C mice (ketamine 100 mg/kg and xylazine 8 mg/kg administered intramuscularly) the cecum was ligated and given a single puncture. Abdominal access was gained via a midline incision. The cecum was isolated and ligated with a 6-0 silk ligature below the ileocecal valve, and the cecum punctured once with a 22 G needle, stool (approximately 1 mm) extruded from the hole, and the cecum placed back into the abdominal cavity. The abdomen was closed with two layers of 6-0 Ethilon sutures. […] Animal survival was monitored for 14 days. […]"}, "[6]": {"target": "T1, MIF", "details": "previously shown (Dios et al., 2002); read-out: IC50, L-amino acid Schiff bases, MIF tautomerase; cited from earlier work"}, "[7]": {"details": "Table 1, L-dopachrome methyl ester substrate, read-out: IC50 for inhibition of MIF tautomerase activity"}, "[8]": {"details": "read-out: IC50, MIF tautomerase activity"}, "[9]": {"details": "read-out: IC50, MIF tautomerase"}}, "note": "Read-outs that look alike come from different tables or passages of the source."}
{"smiles": "COC(=O)CC1CC(c2ccc(O)cc2)=NO1", "note": "(stereo not drawn) [Compound 2, ISO-1]", "values": [{"measurement": "inhibition of LPS-induced TNF release", "setting": "[1]; MIF null macrophages", "value": "not"}, {"measurement": "inhibition of LPS-induced TNF release", "setting": "[1]; wild-type macrophages", "value": "dose-dependently inhibits"}, {"measurement": "survival in septic mice", "setting": "[2]", "value": "significantly improves survival"}]}
{"smiles": "NN=Cc1ccc(O)cc1", "note": "[Compound 3]", "values": [{"measurement": "IC50", "setting": "[3]; [7]", "value": "> 500000", "unit": "nM"}, {"measurement": "IC50", "setting": "[3]; [8]", "value": "> 500000", "unit": "nM"}, {"measurement": "melting point", "value": "248 to 250", "unit": "°C"}]}
{"smiles": "CNN=Cc1ccc(O)cc1", "note": "[Compound 4]", "values": [{"measurement": "IC50", "setting": "[3]; [8]", "value": 43000, "unit": "nM"}, {"measurement": "melting point", "value": "58 to 60", "unit": "°C"}]}
{"smiles": "Oc1ccc(C=NNc2ccccc2)cc1", "note": "[Compound 5]", "values": [{"measurement": "IC50", "setting": "[3]; [8]", "value": 2600, "unit": "nM"}, {"measurement": "melting point", "value": "154 to 156", "unit": "°C"}]}
{"smiles": "COc1ccc(NN=Cc2ccc(O)cc2)cc1", "note": "[Compound 6]", "values": [{"measurement": "IC50", "setting": "[3]; [7]", "value": 480, "unit": "nM"}]}
{"smiles": "COc1ccc(NN=Cc2ccc(O)c(F)c2)cc1", "note": "[Compound 7]", "values": [{"measurement": "apparent biological half-life", "setting": "[4]", "value": "7-9 hours"}, {"measurement": "survival rate", "setting": "[5]", "value": 65, "unit": "%"}, {"measurement": "IC50", "setting": "[3]; [9]", "value": 130, "unit": "nM"}]}
{"smiles": "COc1ccc(NN=Cc2ccc(O)c(Cl)c2)cc1", "note": "[Compound 8]", "values": [{"measurement": "IC50", "setting": "[3]; [9]", "value": 220, "unit": "nM"}, {"measurement": "melting point", "value": "108 to 110", "unit": "°C"}]}
{"smiles": "COc1ccc(NN=Cc2ccc(O)c(Br)c2)cc1", "note": "[Compound 9]", "values": [{"measurement": "IC50", "setting": "[3]; [9]", "value": 330, "unit": "nM"}, {"measurement": "melting point", "value": "135 to 137", "unit": "°C"}]}
{"smiles": "CN(N=Cc1ccc(O)cc1)c1ccccc1", "note": "[Compound 10]", "values": [{"measurement": "IC50", "setting": "[3]; [8]", "value": 300000, "unit": "nM"}, {"measurement": "melting point", "value": "93 to 95", "unit": "°C"}]}
{"smiles": "CCOC(=O)NN=Cc1ccc(O)cc1", "note": "[Compound 12]", "values": [{"measurement": "melting point", "value": "189 to 190", "unit": "°C"}]}
{"smiles": "CC(C)(C)OC(=O)NN=Cc1ccc(O)cc1", "note": "[Compound 13]", "values": [{"measurement": "melting point", "value": "155 to 156", "unit": "°C"}]}
{"smiles": "O=C(NN=Cc1ccc(O)cc1)OCc1ccccc1", "note": "[Compound 14]", "values": [{"measurement": "melting point", "value": "159 to 160", "unit": "°C"}]}
{"smiles": "COc1ccc(COC(=O)NN=Cc2ccc(O)cc2)cc1", "note": "[Compound 15]", "values": [{"measurement": "melting point", "value": "147 to 148", "unit": "°C"}]}
{"smiles": "CC(C)(C)OC(=O)NN=Cc1ccc(O)c(F)c1", "note": "[Compound 18]", "values": [{"measurement": "IC50", "setting": "[3]; Table 2, hydrazone carbamates, L-dopachrome methyl ester substrate, read-out: IC50 for inhibition of MIF tautomerase activity", "value": 2400, "unit": "nM"}]}
{"smiles": "N[C@@H](Cc1ccccc1)C(=O)O", "note": "[L-phenylalanine]", "values": [{"measurement": "IC50", "setting": "[6]", "value": 50000, "unit": "nM"}]}
{"smiles": "N[C@@H](Cc1ccc(O)cc1)C(=O)O", "note": "[L-tyrosine]", "values": [{"measurement": "IC50", "setting": "[6]", "value": 10000, "unit": "nM"}]}
